Measured values from publication PMC3883635, “Two Different Conformations in Hepatitis C Virus p7 Protein Account for Proton Transport and Dye Release” (PLoS ONE, 2014).

Biological target: T1, HCV-p7 (synthetic p7_1-63) (Hepatitis C virus (isolate H77), UniProt P27958)
T1 construct: mature p7 of the HCV genome polyprotein; synthetic peptide (solid-phase), extra N-terminal Met (residue 0); 63 residues plus 1; in DPhPC membranes
Experiment: single channel recording in black lipid membrane
Type: biochemical
Details: DPhPC membranes; 10 µM methanol solution of p7 added; read after five minutes; concentration of HMA not in text

T1 sequence (P27958 747-809): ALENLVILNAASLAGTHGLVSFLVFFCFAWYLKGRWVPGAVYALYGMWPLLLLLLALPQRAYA

N=C(N)NC(=O)c1nc(Cl)c(N2CCCCCC2)nc1N [HMA]
channel block: HCV-p7 ion channel activity is blocked by HMA in a full trace of different voltages
